Patent US20250353873A1, “COMPOUNDS AND METHODS FOR MODULATING APOE EXPRESSION” (Ionis Pharmaceuticals, Inc., priority 2024, published 2025)
Marks after values point to notes of the source that are not given here. Strand notation (5' to 3'): a small letter for the sugar, then the base; units joined by * are phosphorothioate-linked, units joined directly phosphodiester-linked; [ ] holds rarer units or linkages, { } end groups; capitals alone tell only the bases. [ms] = mesyl phosphoramidate linkage; e = 2'-O-(2-methoxyethyl) (MOE); k = constrained ethyl (cEt); [5mC] = 5-methylcytosine; d = 2'-deoxy (DNA)

What was measured:
human APOE RNA [1] = assay: Activity in APOE C57BL/6NTac-Apoeem7250 knock-in mice, single ICV bolus, 20 weeks (Example 13); assay type: in vivo; conditions: single ICV bolus 300 μg, 20 weeks post treatment, normalized to mouse Ppia
Procedure: Modified oligonucleotides described above were tested in the APOE C57BL/6NTac-Apoeem7250 knock-in mouse model described above.
APOE C57BL/6NTac-Apoeem7250 knock-in mice were divided into groups of 4 mice each. Each mouse received a single ICV bolus of 300 μg of modified oligonucleotide. A group of 2-4 mice received a single ICV bolus with PBS as a negative control.
Twenty weeks post treatment, mice were sacrificed and RNA was extracted from cortical brain tissue and spinal cord for quantitative real-time RT-PCR analysis of RNA expression of APOE using human primer probe set RTS3073 (described herein above). APOE RNA levels were normalized to mouse Ppia. Mouse Ppia was amplified using primer probe set m_cyclo24 (described herein above). Results are presented as percent human APOE RNA relative to the amount of human APOE RNA in PBS treated animals, (% control). Each experiment is identified in separate tables below.

human APOE RNA [2] = assay: Dose-dependent inhibition of human APOE RNA in HepG2 cells, electroporation, 50,000 cells per well, RT-PCR normalized to GAPDH (Example 4, Tables 8-10); assay type: cell-based; conditions: HepG2, electroporation, 16-hour treatment
How it was run: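 Readout is percent APOE RNA versus untreated controls, measured by RT-PCR (primer probe set RTS3073) and normalized to human GAPDH. Modified oligonucleotides were delivered by electroporation at varying doses into HepG2 cells plated at 50,000 per well.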

human APOE RNA [3] = assay: Dose-dependent inhibition of human APOE RNA in HepG2 cells, electroporation, 24 hours (Example 6); assay type: cell-based
How it was run: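 IC50 derived from APOE RNA levels, given as percent of untreated control after GAPDH normalization (probe sets RTS3073 and RTS104). Oligonucleotides were delivered at multiple concentrations by electroporation into HepG2 cells seeded at 50,000 per well.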

human APOE RNA [4] = assay: Activity in APOE C57BL/6NTac-Apoeem7250 knock-in mice, single ICV bolus, 4 weeks (Example 10); assay type: in vivo; conditions: C57BL/6NTac-Apoeem7250 knock-in mice, single ICV bolus 300 μg, 4 weeks (Table 22)
How it was run: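 Human APOE RNA, quantified by real-time RT-PCR with RTS3073 and normalized to mouse Ppia, was read in cortical brain and spinal cord 4 weeks post dosing. Dosing was a single ICV bolus of 300 μg per knock-in mouse; values are % of PBS-treated animals.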

human APOE RNA [5] = assay: Activity in APOE C57BL/6NTac-Apoeem7250 knock-in mice, single ICV bolus, 16 weeks (Example 12); assay type: in vivo; conditions: single ICV bolus 300 μg, 16 weeks post treatment, normalized to mouse Ppia
How it was run: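 A single 300 μg intracerebroventricular dose was given, with PBS-treated mice as reference; cortical and spinal cord tissue was taken 16 weeks later. RT-qPCR quantified human APOE RNA, Ppia-normalized, expressed relative to PBS animals (% control).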

Row | Substance | APOE RNA (% control) Cortex (human APOE RNA [1]) | APOE RNA (% control) Spinal Cord (human APOE RNA [1]) | APOE RNA (% UTC) (human APOE RNA [2]; 5 nM) | APOE RNA (% UTC) (human APOE RNA [2]; 13 nM) | APOE RNA (% UTC) (human APOE RNA [2]; 33 nM) | APOE RNA (% UTC) (human APOE RNA [2]; 82 nM) | APOE RNA (% UTC) (human APOE RNA [2]; 205 nM) | APOE RNA (% UTC) (human APOE RNA [2]; 512 nM) | APOE RNA (% UTC) (human APOE RNA [2]; 1,280 nM) | APOE RNA (% UTC) (human APOE RNA [2]; 3,200 nM) | APOE RNA (% UTC) (human APOE RNA [2]; 8,000 nM) | APOE RNA (% UTC) (human APOE RNA [2]; 20,000 nM) | IC50 (human APOE RNA [2]) [µM] | other results
1 | 1757583 (eT*eTeGeGeT*dG*dA*dA*dT*d[5mC]*dT*dT*dT*dA*dT*kTeAeA*eA*e[5mC]; antisense) [Compound 1757583] | 97 % control | 100 % control | – | – | – | – | – | – | – | – | – | – | – | –
2 | 1757584 (eT*eTeGeGeT*dG*dA*dA*dT*d[5mC]*dT*dT*dT*dA*dT*kTkAeA*eA*e[5mC]; antisense) [Compound 1757584] | 92 % control | 95 % control | – | – | – | – | – | – | – | – | – | – | – | –
3 | 1757559: mixed MOE/cEt gapmer TTGGTGAATCTTTATTAA, sugar eeeekddddddddkeeee, linkages soossssssssssooss (eT*eTeGeG*kT*dG*dA*dA*dT*d[5mC]*dT*dT*dT*kAeTeT*eA*eA) [compound 1757559] | 94 % control | 69 % control | 90 | 80 | 89 | 87 | 81 | 89 | 60 | 42 | 39 | 25 | 3.11 | –
4 | 1757565 (eA*e[5mC]eTeTkG*dG*dT*dG*dA*dA*dT*d[5mC]*dT*dT*dT*eAeTeT*eA*eA; antisense) [Compound 1757565] | 82‡ % control | 73‡ % control | 95 | 108 | 76 | 84 | 89 | 64 | 49 | 30 | 55 | 22 | 2.13 | –
5 | 1779701 (e[5mC]*eTeT*kG*kG*dT[ms]dG[ms]dA[ms]dA[ms]dT*d[5mC]*dT*dT*dT*dA[ms]dT*eT*eA*eA*eA; antisense) [Compound 1779701] | 56 % control | 24 % control | – | – | – | – | – | – | – | – | – | – | – | –
6 | 1757551: mixed MOE/cEt gapmer TTGGTGAATCTTTATTAA, sugar eeekkddddddddeeeee, linkages soossssssssssooss (eT*eTeGkG*kT*dG*dA*dA*dT*d[5mC]*dT*dT*dT*eAeTeT*eA*eA) [compound 1757551] | 93 % control | 53 % control | 91 | 248 | 88 | 55 | 52 | 41 | 35 | 29 | 14 | 9 | 0.43 | –
7 | 1757586 (eT*eTeGeGkT*dG*dA*dA*dT*d[5mC]*dT*dT*dT*dA*dT*kTkAeA*eA*e[5mC]; antisense) [Compound 1757586] | 88 % control | 83 % control | 202 | 246 | 52 | 157 | 129 | 34 | 27 | 20 | 19 | – | 0.5 | –
8 | 1757561: mixed MOE/cEt gapmer TTGGTGAATCTTTATTAA, sugar eeekkddddddddkeeee, linkages soossssssssssooss (eT*eTeGkG*kT*dG*dA*dA*dT*d[5mC]*dT*dT*dT*kAeTeT*eA*eA) [compound 1757561] | 92 % control | 64 % control | 96 | 191 | 240 | 104 | 130 | 71 | 45 | 38 | 35 | 12 | 2.09 | –
9 | 1757581 (eT*eTeGeGkT*dG*dA*dA*dT*d[5mC]*dT*dT*dT*dA*dT*eTeAeA*eA*e[5mC]; antisense) [Compound 1757581] | 87 % control | 75 % control | 83 | 85 | 100 | 78 | 76 | 58 | 33 | 25 | 15 | 8 | 0.68 | –
10 | 1779970 (e[5mC]*eTeTkG*kG*eT*dG[ms]dA[ms]dA*dT*d[5mC]*dT*dT*dT*dA*dT*eT*eA*eA*eA; antisense) [Compound 1779970] | 63 % control | 35 % control | – | – | – | – | – | – | – | – | – | – | – | –
11 | 1736531 (e[5mC]*eT*eT*eG*eG*kTdG[ms]dA[ms]dA[ms]dT*d[5mC]*dT*dT*dT*dA[ms]dT*eT*eA*eA*eA; antisense) [Compound 1736531] | – | – | – | – | – | – | – | – | – | – | – | – | – | IC50 (human APOE RNA [3]): 0.94 µM; APOE RNA (% UTC) (human APOE RNA [3]; 5 nM): 97 % UTC; APOE RNA (% UTC) (human APOE RNA [3]; 13 nM): 91 % UTC; APOE RNA (% UTC) (human APOE RNA [3]; 33 nM): 89 % UTC; APOE RNA (% UTC) (human APOE RNA [3]; 82 nM): 86 % UTC; APOE RNA (% UTC) (human APOE RNA [3]; 205 nM): 77 % UTC; APOE RNA (% UTC) (human APOE RNA [3]; 512 nM): 53 % UTC; APOE RNA (% UTC) (human APOE RNA [3]; 1,280 nM): 49 % UTC; APOE RNA (% UTC) (human APOE RNA [3]; 3,200 nM): 33 % UTC; APOE RNA (% UTC) (human APOE RNA [3]; 8,000 nM): 12 % UTC; APOE RNA (% UTC) (human APOE RNA [3]; 20,000 nM): 20 % UTC; APOE RNA (% control) Cortex (human APOE RNA [4]; Cortex): 42 % control; APOE RNA (% control) Spinal Cord (human APOE RNA [4]; Spinal Cord): 52 % control; APOE RNA (% control) Cortex (human APOE RNA [5]; cortex): 54 % control; APOE RNA (% control) Spinal Cord (human APOE RNA [5]; spinal cord): 74 % control
